From patent US20140248383A1, “SLEEP QUALITY IMPROVING AGENT” (LION CORPORATION, priority 2011, published 2014)

Test system: male C57BL/6 mice
Assay: Measurement of amount of activity of mice (sleep inducing effect)
Assay type: in vivo
Protocol: When a sample has the function of inducing sleep, the amount of activity always decreases after administration of the sample. Therefore, the sleep inducing effect of each sample was evaluated by determining whether or not the administration of the sample solution to a mouse caused a reduction in the amount of activity.
8-Week old or 9-week old male C57BL/6 mice were purchased from Japan SLC, Inc. and acclimatized for 3 to 6 days. The amount of activity during acclimatization was used to divide the mice into administration groups. Immediately before the onset of the dark period, Fraxinus excelsior L. extract was orally administered in an amount of 3 g/kg per body weight of a mouse (Example 1-1), or a 0.5% by mass aqueous methyl cellulose solution was orally administered in an amount of 10 mL/kg per body weight of a mouse (Comparative Example 1-1), and the amount of activity was measured for 24 hours after administration. Each administration group included 8 mice (n=8).
The amount of activity was measured under the following conditions. The mice were raised in individual cages, and an infrared camera was disposed above each cage. The imaging range of the infrared camera was divided into 64 sections, and the number of occurrences that the mouse crossed a section was measured. The number of occurrences was collected every 30 minutes. […]

## O=C1c2c(O)cc(O)cc2O[C@H](c2ccc(O)c(O)c2)[C@H]1O [DIHYDROQUERCETIN, dihydroquercetin]
Dihydroquercetin 2.7 g/kg oral immediately before dark period, n=4
  cumulative amount of activity 6 hours after administration: 4700 number of occurrences/6 hours
Dihydroquercetin 2.7 g/kg oral, n=4, significant difference at p<0.01
  cumulative amount of activity 6 hours after administration compared to control solution: significantly lower
